Laboratory results reported in patent US20150072933A1, “NOVEL SEQUENCES FOR THE CONTROL OF REPRODUCTION IN FISH” (Yissum Research Development Company of the Hebrew …, priority 2011, published 2015).
Entries after “also recorded” stand apart in the source; their conditions may differ. Blank lines part the entries; values can stand above or below the compound they belong to. Where a SMILES comes first, the peptide text is derived from it.

What was measured:
zfTac3ra [1] = experiment: Receptor transactivation assay, CRE-Luc reporter (PKA activation), COS-7 cells expressing zfTac3ra; assay type: cell-based, zebrafish; settings: mean ± SEM
Procedure: (§1) In order to study the signaling pathways of the novel zebrafish NKBs, the entire coding regions of zftac3ra (denoted by SEQ ID NO:6) or zftac3rb (denoted by SEQ ID NO:7), or the cDNA clone for human NK3R (obtained from the Missouri S&T cDNA Resource Center, were inserted into pcDNA3.1 (Invitrogen). The luciferase assay was conducted according to Biran et al., 2008 [4] COS-7 cells were grown in DMEM supplemented with 10% FBS, 1% glutamine, 100 U/ml penicillin, and […] streptomycin (Biological Industries) under 5% CO2 until confluent. Cotransfection of either pc-zftac3ra, pc-zftac3rb or pc-Htac3r (at 3 μg/plate), a reporter plasmid (at 2 μg/plate), and pCMV-β-galactosidase (at 1 μg/plate) was carried out with FuGENE 6.0 reagent (Roche). The cells were serum starved for 36 h, stimulated with vehicle or various concentrations of either human (Sigma) or zebrafish NKBs for 6 h, and then harvested and analyzed. Lysates prepared from the harvested cells were assayed for both luciferase activity and β-galactosidase activity, which was used as an internal standard to normalize the luciferase activity directed by the test plasmid. Transfection experiments were performed in triplicate with three independently isolated sets. Protein structure prediction of zebrafish NKBa, NKBb or NKF were performed on I-Tasser servers.
(§2) The response, binding selectivity and signal transduction pathways of the novel tachykinin receptors to their agonists were evaluated by functional expression analysis, using COS-7 cells.
(§3) The NKB analogues (i.e. the NKBa-analog, NKBb-analog and NKF-analog, as denoted by SEQ ID NO. 44-46) were first analyzed in comparison to their native forms in a transactivation assay, using reporter genes for specific signal transduction pathways. To validate the specificity of the serum-responsive element (SRE)-Luc and cAMP-responsive element (CRE)-Luc reporter systems, specific activators for PLC/PKC and AC/PKA signaling pathways were used in control experiments.
(§4) Thus, the ability of the three novel piscine peptides (namely, NKBa, NKBb and NKF, denoted by SEQ ID NO.40, 41 and 42), as well as the ability of the three analogous agonistic peptides, namely, NKBa-analog, NKBb-analog and NKF-analog, to differentially activate the different tac3 receptors, using SRE as a reporter gene that follows PKC activation and CRE as a reporter gene for the PKA pathway, was tested. Human NK3R (human NKB receptor) and human NKB served as controls.

zfTac3rb [2] = experiment: Receptor transactivation assay, CRE-Luc reporter (PKA activation), COS-7 cells expressing zfTac3rb; assay type: cell-based, zebrafish; settings: mean ± SEM
Procedure: as §1, §2, §3, §4

zfTac3ra [3] = experiment: Receptor transactivation assay, SRE-Luc reporter (PKC activation), COS-7 cells expressing zfTac3ra; assay type: cell-based, zebrafish; settings: mean ± SEM
Procedure: as §1, §2, §3, §4

zfTac3rb [4] = experiment: Receptor transactivation assay, SRE-Luc reporter (PKC activation), COS-7 cells expressing zfTac3rb; assay type: cell-based, zebrafish; settings: mean ± SEM
Procedure: as §1, §2, §3, §4

huNK3R = target: T1, huNK3R (Homo sapiens, UniProt P29371); experiment: Receptor transactivation assay, SRE-Luc reporter (PKC activation), COS-7 cells expressing human NK3R; assay type: cell-based
T1 construct: host or cells: COS-7
T1 sequence (P29371 1-465): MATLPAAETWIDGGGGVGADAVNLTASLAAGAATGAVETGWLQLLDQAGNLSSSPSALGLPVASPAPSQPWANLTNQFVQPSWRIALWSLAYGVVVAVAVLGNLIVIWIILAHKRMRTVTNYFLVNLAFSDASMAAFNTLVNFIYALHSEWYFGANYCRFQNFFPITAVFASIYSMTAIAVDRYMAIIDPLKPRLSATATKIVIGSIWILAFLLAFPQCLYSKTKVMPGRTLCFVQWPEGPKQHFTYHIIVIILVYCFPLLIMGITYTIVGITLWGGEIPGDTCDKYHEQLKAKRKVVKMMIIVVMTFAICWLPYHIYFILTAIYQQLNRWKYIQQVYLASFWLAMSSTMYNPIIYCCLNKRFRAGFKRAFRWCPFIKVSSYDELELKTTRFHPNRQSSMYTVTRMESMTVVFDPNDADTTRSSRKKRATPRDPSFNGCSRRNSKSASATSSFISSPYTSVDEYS
Procedure: In order to study the signaling pathways of the novel zebrafish NKBs, the entire coding regions of zftac3ra (denoted by SEQ ID NO:6) or zftac3rb (denoted by SEQ ID NO:7), or the cDNA clone for human NK3R (obtained from the Missouri S&T cDNA Resource Center, were inserted into pcDNA3.1 (Invitrogen). The luciferase assay was conducted according to Biran et al., 2008 [4] COS-7 cells were grown in DMEM supplemented with 10% FBS, 1% glutamine, 100 U/ml penicillin, and 100 mg/ml streptomycin (Biological Industries) under 5% CO2 until confluent. Cotransfection of either pc-zftac3ra, pc-zftac3rb or pc-Htac3r (at 3 μg/plate), a reporter plasmid (at 2 μg/plate), and pCMV-β-galactosidase (at 1 μg/plate) was carried out with FuGENE 6.0 reagent (Roche). The cells were serum starved for 36 h, stimulated with vehicle or various concentrations of either human (Sigma) or zebrafish NKBs for 6 h, and then harvested and analyzed. Lysates prepared from the harvested cells were assayed for both luciferase activity and β-galactosidase activity, which was used as an internal standard to normalize the luciferase activity directed by the test plasmid. Transfection experiments were performed in triplicate with three independently isolated sets.

[5] = target: T2, NKB receptors (human NKBR, zebrafish Tac3ra, Tac3rb) (Homo sapiens, UniProt P29371); experiment: Receptor transactivation assay, statements in words across SRE-Luc and CRE-Luc reporters and receptors; assay type: cell-based; settings: human NKBR (huNK3R), in both signal transduction systems (SRE-Luc and CRE-Luc)
T2 construct: expressed in transfected cells; host or cells: COS-7
T2 sequence (P29371 1-465): T1 sequence (P29371 1-465)
Procedure: as §1, §2, §4

[6] = test system: NKB receptors (human NKBR, zebrafish Tac3ra, Tac3rb); experiment: as above; assay type: cell-based
Procedure: as §1, §2, §4

[7] = test system: sexually mature female zebrafish; experiment: In vivo effect of NKBs in zebrafish: LH secretion after intraperitoneal injection; settings: single intraperitoneal injection, 20 pmol/g body weight, sexually mature female zebrafish
Procedure: In vivo studies involved administering NKBa, NKBb or NKF and the analogues thereof, denoted by SEQ ID NO. 40-42 and 44-46, respectively to immature fish (20 fish/treatment). The circulating levels of E2, 11KT, LH and FSH were determined prior to hormonal manipulations, in order to confirm that these fish were indeed sexually immature. The fish were injected intramuscularly (i.m.) or intraperitonealy (i.p.) at various doses. Adult female zebra fish were injected intraperitoneally with 20 pmol/g body weight. Control fish were injected with saline. Plasma samples were collected at time 0, and specific times after the administration of the peptide/s, to determine the levels of E2, 11KT, LH and FSH.
To further characterize the role of the NKB/NKBR system in fish reproduction the in vivo biological function of zebrafish NKB peptides was next examined.

Juvenile Tilapia = experiment: Gonadotropin release in vivo from juvenile tilapia (plasma LH and FSH by ELISA); set-up: species or system Tilapia (Oreochromis niloticus)
Procedure: Tilapia females (two-months old) were injected with the NKBa analogue denoted by SEQ ID NO.44 or the NKF analogue denoted by SEQ ID NO.46 at 0.5 or 5 μg/kg body weight (BW). Blood was withdrawn from the caudal vein and plasma Luteinizing hormone (LH) and Follicle-stimulating hormone (FSH) levels were measured using a homologous sensitive enzyme-linked immunosorbent assay (ELISA), as described by Aizen et al. 2007 [33].

Tilapia pituitary cells = experiment: Gonadotropin release from tilapia pituitary dispersed cells; assay type: cell-based; settings: 10 nM, 4 hr
Procedure: Tilapia pituitary cells were subjected to enzymatic dispersion. Pituitary cells were stimulated with 10 nM of the NKBa or NKF analogue, denoted by SEQ ID NO.44 and SEQ ID NO.46, respectively, for 4 hr, when the medium was collected. […] Stimulation of tilapia pituitary cells with GnRH at [10 nM] was used as a control.

Mature female carp = experiment: Gonadotropin release from mature carp in vivo (LH by ELISA)
Procedure: Mature female carp, just before spawning, were injected with NKBa, NKBb and NKF analogues, denoted by SEQ ID NO.44, SEQ ID NO.45 and SEQ ID NO.46, respectively (20 μg/kg body weight). LH levels was measured by specific ELISA, according to Aizen et al. 2012 [33].

[8] = Table 6 (native peptides and analogues), PKA activation, read-out: EC50 using CRE-Luc, zfTac3ra
[9] = Table 6 (native peptides and analogues), PKA activation, read-out: EC50 using CRE-Luc, zfTac3rb
[10] = Table 7 (native peptides and analogues), PKC activation, read-out: EC50 using SRE, zfTac3ra
[11] = Table 7 (native peptides and analogues), PKC activation, read-out: EC50 using SRE, zfTac3rb
[12] = Juvenile Tilapia, injected at 0.5 or 5 μg/Kg BW
[13] = tilapia females two-months old, injected 5 μg/kg BW, listed as NKF analogue

- EC50 (zfTac3ra [1]; Table 5, COS-7 cells, CRE-Luc follows PKA activation, read-out: EC50 CRE-Luc zfTac3ra): 0.237 ± 0.134 µM
- EC50 (zfTac3ra [1]; Table 6 (native peptides and analogues), PKA activation, listed as NKBb, read-out: EC50 using CRE-Luc, zfTac3ra): 0.0996 µM
- EC50 (zfTac3ra [1]; [8]): 0.0996 ± 0.0129 µM
- EC50 (zfTac3rb [2]; Table 5, COS-7 cells, CRE-Luc follows PKA activation, read-out: EC50 CRE-Luc zfTac3rb): 0.519 ± 0.16 µM
- EC50 (zfTac3rb [2]; [9]): 0.191 µM
- EC50 (zfTac3ra [3]; Table 5, COS-7 cells, SRE-Luc follows PKC activation, read-out: EC50 SRE-Luc zfTac3ra): 0.00896 ± 0.00119 µM
- EC50 (zfTac3ra [3]; [10]): 0.00606 µM
- EC50 (zfTac3rb [4]; Table 5, COS-7 cells, SRE-Luc follows PKC activation, read-out: EC50 SRE-Luc zfTac3rb): 0.0338 ± 0.0147 µM
- EC50 (zfTac3rb [4]; Table 7 (native peptides and analogues), PKC activation, listed as NKBb, read-out: EC50 using SRE, zfTac3rb): 0.0153 µM
- EC50 (zfTac3rb [4]; [11]): 0.0153 ± 0.0183 µM
- SRE-driven luciferase activity, response (huNK3R; COS-7 cells transiently transfected with human NK3R): lowest effect
- EC50 (huNK3R; Table 5, COS-7 cells, SRE-Luc follows PKC activation, mean ± SEM): 0.204 ± 0.139 µM
- potency [5]: relatively low potency
- luciferase activity ([6]; both SRE-Luc and CRE-Luc, both signal transduction pathways): less effective than the other forms
- activation of the piscine NKB receptors ([6]; zebrafish tac3ra and tac3rb, FIGS. 11A, B, D, E): lowest effect
Structure (SMILES): CC[C@H](C)[C@H](NC(=O)CNC(=O)[C@@H](NC(=O)[C@@H](N)CO)[C@@H](C)O)C(=O)N[C@@H](CC(N)=O)C(=O)N[C@@H](CCCNC(=N)N)C(=O)N[C@@H](CCC(=O)O)C(=O)N[C@@H](C)C(=O)N[C@@H](Cc1c[nH]cn1)C(=O)N[C@@H](CC(C)C)C(=O)N1CCC[C@H]1C(=O)N[C@@H](Cc1ccccc1)C(=O)N[C@@H](CCCNC(=N)N)C(=O)N1CCC[C@H]1C(=O)N[C@@H](CC(N)=O)C(=O)N[C@@H](CCSC)C(=O)N[C@@H](CC(N)=O)C(=O)N[C@@H](CC(=O)O)C(=O)N[C@H](C(=O)N[C@@H](Cc1ccccc1)C(=O)N[C@H](C(=O)NCC(=O)N[C@@H](CC(C)C)C(=O)N[C@@H](CC(C)C)C(N)=O)C(C)C)[C@@H](C)CC [zfNKBb] (H-STGINREAHLPFRPNMNDIFVGLL-NH2; N-terminus assumed)
- LH secretion [7]: significant increase; also recorded: less pronounced

- EC50 (zfTac3ra [1]; [8]): 0.00914 ± 0.00127 µM
- EC50 (zfTac3rb [2]; [9]): 0.00775 µM
- EC50 (zfTac3ra [3]; [10]): 0.00031 µM
- EC50 (zfTac3rb [4]; [11]): 0.00054 ± 0.00039 µM
Structure (SMILES): CSCC[C@H](NC(=O)[C@H](CC(C)C)NC(=O)CNC(=O)[C@H](C(C)C)N(C)C(=O)[C@H](Cc1ccccc1)NC(=O)[C@H](CO)NC(=O)[C@H](CC(=O)O)NC(=O)CCC(=O)O)C(N)=O [zfNKF-analog, Succ-Asp-Ser-Phe-N(Me)Val-Gly-Leu-Met-NH2]
- FSH secretion (Juvenile Tilapia; [12]): significant increase
- LH secretion (Juvenile Tilapia; [12]): significant increase
- plasma FSH level (Juvenile Tilapia; [13]): significant increase; also recorded: increased significantly
- plasma LH level (Juvenile Tilapia; [13]): significant increase
- release of FSH from tilapia pituitary cells (Tilapia pituitary cells): significantly increased
- LH level (Mature female carp; mature female carp just before spawning, injected 20 μg/kg body weight, listed as NKF analogue): significant elevation; also recorded: increased the level of LH significantly
- persistence of the LH effect (Mature female carp; mature female carp, 20 μg/kg body weight, throughout the experiment): remained constant throughout the experiment
